Laboratory results published in a melting point compilation (Tetko et al.; mined from patent text by program, amines drawn as free bases though some values may be those of a salt).

Row | SMILES | melting point [°C]
1 | O=C1c2cc([N+](=O)[O-])ccc2CC2CCCCN12 (stereo not drawn) | 137 to 142
2 | CCOC(=O)Nc1nc(C)c(-c2nc3ccccc3c(=O)n2-c2cccc(C)c2)s1 | 210 to 211
3 | FC(F)(F)c1ccc(-c2ccnc(Oc3ccc4cccnc4c3)c2)cc1 | 156 to 158
4 | CNc1nc(-c2cccc(-c3ccc(SC)cc3)c2)c2cc(OC)c(OC)cc2n1 | 140 to 142
5 | OC(c1ccccc1)(c1cccc(Cl)c1)c1ncc[nH]1 (stereo not drawn) | 174 to 175
6 | O=C(O)CCCOc1ccc(CSc2[nH]nc(NS(=O)(=O)c3c(Cl)cccc3Cl)c2-c2ccccn2)cc1 | 183 to 185
7 | COC(=O)C(F)[C@@H]1[C@H]2O[C@H]2C[C@H]1O (stereo partly drawn) | 31 to 33
8 | O=C(CCCCCBr)Nc1ccc(O)cc1 | 124 to 125
9 | O=C(NNc1ccc([N+](=O)[O-])cc1)c1ccccc1 | 194 to 195
10 | O=S(=O)(Nc1cc(Cl)c(Cl)c(Cl)c1)c1cc(S(=O)(=O)Nc2cc(Cl)c(Cl)c(Cl)c2)c2cc(O)ccc2c1 | 164 to 166
11 | c1ccc(Cn2ccnc2COc2nn3c(-c4ccon4)nnc3c3ccccc23)cc1 | 198
12 | CCCCCCCCCCNC(=O)OC1CCN(C(=O)OCCCCCCNC(=O)Oc2ccc(Oc3ccccc3)cc2)CC1 | 87 to 91
13 | CC(C)Cc1cccc(CCCn2c(=O)c3c(N4CCN(C)CC4)cc(Cl)cc3n(Cc3ccccc3)c2=O)c1 | 56 to 62
14 | O=CN1CCC(c2nn(-c3ccc(F)cc3)c3ccccc23)CC1 | 128 to 130
15 | CCOP(=O)(OCC)C(Nc1nc2ccccc2[nH]1)P(=O)(OCC)OCC | 169 to 170
16 | COC(=O)Nc1nc2ccccc2n1-c1nc(N2CCOCC2)nc(N2CCOCC2)n1 | 206 to 209
17 | C[C@H]1C(=O)NC(=O)N1CC(=O)Nc1c2c(nc3ccccc13)CCCC2 | 260 to 263
18 | Nc1ccc(NC(=O)[C@H](Cc2ccccc2)NC(=O)c2ccc(-c3nnn[nH]3)cc2)cc1 | 137
19 | Cc1c(-c2ccc(O)cc2)n(Cc2ccc(OCCN3C[C@@H]4CC[C@H]3C4)cc2)c2ccc(O)cc12 | 125 to 130
20 | CC(Oc1ncn(-c2ccc(Br)cc2)n1)C(N)=O (stereo not drawn) | 179 to 181
21 | CCCOC1=Nc2ccc(Cl)cc2C(=CCCN)N1CCC | 50 to 51
22 | CN1Cc2c(C#CBr)ncn2-c2ccc(F)cc2C1=O | 167
23 | Nn1cccc1C(=O)c1ccccc1Cl | 76 to 78

Row | SMILES | melting point [°C]
24 | CCCCCCCC(=O)Oc1nc2c(N)ncnc2n1Cc1ccccc1 | 248 to 250
25 | COc1ccc(C)cc1NC(=O)Nc1ccc(N2CCN(C(=O)Oc3ccc(CCO)cc3Cl)CC2)cc1 | 189 to 190
26 | O=c1[nH]c2c([nH]c1=O)C1=C(CCC(n3cccc3)=C1)CC2 | > 250
27 | Cc1ncnc2nc(N)c(-c3c(Cl)cccc3Cl)cc12 | 280 to 282
28 | O=C(Nc1nc(C(Cl)(Cl)Cl)ns1)c1c(Cl)cccc1Cl | 209
29 | Clc1cccc(-c2cc(Cl)nc3ccc(Br)cc23)c1 | 125
30 | CCCCc1nc(SC)c(C(=O)OCC)n1Cc1ccc(-c2nc3ccccn3c2C#N)cc1 | 168
31 | CCN(CC)Cc1cc(NC(=O)Nc2ccc(Oc3cc(N)ncn3)cc2)cc(C(F)(F)F)c1 | 63 to 65
32 | CCCCNS(=O)(=O)CC(O)C(O)C(CC1CCCCC1)NC(=O)c1ccncc1 (stereo not drawn) | 168 to 186
33 | O=C1Cc2cc(Cl)cc(C(=O)c3ccc(F)cc3)c2N1 | 222 to 225
34 | CCOc1ccc(C2(N)NC(Nc3ccc4c(c3)OCCO4)=NC=C2F)cc1 (stereo not drawn) | 164 to 167
35 | O=c1[nH]c2c([nH]1)-c1ccncc1CC2 | > 310
36 | Cc1ccc(S(=O)(=O)N2CC3=C(CNCC3)C2)cc1 | 201
37 | Nc1nc(Cl)c2ncn(C3CC(F)C(CO)O3)c2n1 (stereo not drawn) | 172
38 | CC(C)C[C@@H](CO)NC(=O)[C@H](Cc1c[nH]cn1)NC(=O)[C@H](Cc1cccc2ccccc12)NC(=O)OCC1c2ccccc2-c2ccccc21 | 118 to 120
39 | CCn1nc(C)c2c(Cl)cc(-c3ccccc3)nc21 | 101 to 103
40 | CCN(Cc1ccc(F)nc1)C(=S)NC | 123 to 124
41 | O=c1c(Br)c(OCc2ccccc2)ccn1CCc1ccsc1 | 134
42 | COc1ccc(F)cc1N1CCN([C@H]2CC[C@@H](c3c[nH]c4ccc(F)cc43)CC2)CC1 | 152 to 153
43 | O=C1CCCN1c1ccnn1-c1c(Cl)cc(C(F)(F)F)cc1Cl | 130 to 131
44 | CC1C(=NO)CC2(O)C3Cc4ccc(O)c5c4C2(CCN3C)C1O5 (stereo not drawn) | 115 to 116
45 | S=c1nc2c(-c3ccccc3)cccn2c(=S)n1-c1ncccc1-c1ccccc1 | 90 to 92
46 | Nc1ccc(C(=O)CCc2ccc(Cl)c(Cl)c2)cc1 | 127 to 129

The next lines start with the values.

Row | melting point [°C] | SMILES
47 | 200 | NC(CSCC(O)CN1CCOCC1)C(=O)O (stereo not drawn)
48 | 162 to 164 | Cc1c(NC(=O)c2ccc(OCC3CC3)cc2)ccc2cc(C(C)N3CCCC3)cnc12 (stereo not drawn)
49 | 172 to 173 | CC(C)Cn1c(=O)n(C)c(=O)c2c(SCCCC(=O)O)c(Cc3cccc4ccccc34)sc21
50 | 142 to 144 | CC1CN(c2ccccc2)N=C1NC(=O)C(F)(F)F (stereo not drawn)
51 | 52 to 62 | CCOC(=O)C(=O)N(O)Cc1ccc2c(c1)OCc1ccccc1C2=O
52 | > 200 | CCn1c(C)nc(N2CCc3nc(N)sc3CC2)c([N+](=O)[O-])c1=O
53 | 151 to 153 | C=CCC1(CC=C)c2cccc(Cl)c2C(=O)c2c(OC)cccc21
54 | 144 to 148 | COc1ccc2c(c1)C(=O)N(c1ccc3c(ccn3C(C)C)c1)C2
55 | 141 to 143 | Cc1ccc(S(=O)(=O)N(C)c2ncc(Cl)cc2[N+](=O)[O-])cc1
56 | 211 to 213 | Cc1c(Br)c2c(c(C)c1NC(=O)CC(C)(C)C)C(c1ccc(C(C)C)cc1)CS2(=O)=O (stereo not drawn)
57 | 162 to 164 | CCOC(=O)c1c[nH]c(SC(F)(F)F)c1-c1ccc(Cl)cc1
58 | 252 to 253 | O=C(O)Cc1c(C(=O)c2ncc[nH]2)[nH]c2cc(Cl)ccc12
59 | 133 to 135 | CC(=O)OCC1OC(n2cnc(C(N)=O)c2Br)C(OC(C)=O)C1OC(C)=O (stereo not drawn)
60 | 165 to 175 | O=C(c1ccccc1)c1ccc(-c2ccc(-c3ccc(Cl)cc3)s2)s1
61 | 165 to 166 | CS(=O)(=O)c1ccc(-c2cc(C=O)sc2-c2ccc(F)cc2)cc1
62 | 217 to 223 | CC(/C=C/c1c(C)sc(C)c1C)=C(F)\C=C\C(C)=C\C(=O)O
63 | 155 to 158 | CN1CCN(c2ccc(Nc3nc(N)c(C(=O)c4c(F)cccc4C(F)(F)F)s3)cc2)CC1
64 | 148 to 149 | Cc1ccc(S(=O)(=O)NCC(NS(=O)(=O)c2ccc(C)cc2)c2ccccc2)cc1 (stereo not drawn)
65 | 233 to 237 | Cc1[nH]c(C(=O)O)c(C)c1C=O
66 | 117 to 118 | CSc1ncc(S(=O)(=O)NC(C)(C)C)c(Cl)n1
67 | 100 to 102 | COc1cc(Cl)c(C#N)cc1C(=O)O
68 | 105 to 107 | COc1ccc(N2CCCN(c3c(C)c(C)c4c(c3C)CC(C)(C)O4)CC2)cc1
69 | 98 to 100 | CC1(C)SC(=O)NC1C(=O)NCCO[N+](=O)[O-] (stereo not drawn)
70 | 68 to 75 | CCCCCCCCCCCCCCCc1c([N+](=O)[O-])cc([N+](=O)[O-])c(OC)c1C(=O)O
71 | 155 to 157 | O=C(O)COc1cc(NS(=O)(=O)c2cccs2)c2ccccc2c1O
72 | 139 to 140 | CC(C)c1nsc2ccc(-n3c(=O)cc(C(F)(F)F)n(C)c3=O)cc12

Row | melting point [°C] | SMILES
73 | 163 to 165 | COC(=O)c1cc(C#Cc2cnc3nc(NC(=O)C(C)(C)C)nc(O)c3c2)cn1[Si](C(C)C)(C(C)C)C(C)C
74 | 206 to 207 | CCOC(=O)C1=C(C)NC(C)=C(C#N)C1c1cccc2c1SC(c1ccccc1)=CC2 (stereo not drawn)
75 | 230 to 232 | NC(=O)NCc1cccc(-c2csc(N=C(N)N)n2)c1
76 | 238 | CCOC(=O)Cn1c2c([nH]c(=O)c1=O)CCC1=C2C=C(N)CC1
77 | 135 to 140 | Cc1ccc(-c2ccc(=S)[nH]n2)c(OCC(O)CNC(C)(C)C)c1 (stereo not drawn)
78 | 147 to 149 | CCOC(=O)CNC(=S)Cc1cnc(C)c(O)c1CO
79 | 209 to 210 | CC(=O)N1CCN(NC(=O)c2ccc(F)cc2)CC1
80 | 164 to 165 | O=C(Nc1nc(C(F)(F)C(F)(F)F)c(CO)s1)c1cc(C(F)(F)F)cc(C(F)(F)F)c1
81 | 108 to 109 | C=CCOC(=O)c1ccc(NC(=O)C(=NO)c2ccc3c(c2)C(C)(C)CCC3(C)C)cc1O
82 | > 260 | CCC(NC(=O)c1c(NC(C)=O)c(NC(C)=O)cc2c1OCCO2)N1CCCCC1 (stereo not drawn)
83 | 264 to 266 | CNC(=O)c1cc2c(cn1)[nH]c1ccccc12
84 | 163 | Cc1cc(C)cc(C23SCCN2C(=O)c2ccccc23)c1 (stereo not drawn)
85 | 151 to 152 | CCOC(=O)c1nnc(C(=O)OCC)c2c1[nH]c1ccccc12
86 | 188 to 191 | Cc1ccc(Nc2c(N3CCCC3)cc(C(=O)O)cc2S(N)(=O)=O)cc1
87 | > 300 | Cc1nc(NC(=O)c2ccc(-c3nn[nH]n3)cc2)sc1C(=O)NCc1ccccc1
88 | 184 to 185 | COc1nc(C)cnc1NS(=O)(=O)c1cccnc1-c1ccc(C)cc1
89 | 184 | COc1cccc(C(=O)NCCc2ccc(-c3ccc(OC(C)(C)C(=O)O)cc3)cc2)c1OC
90 | 69 to 71 | CC(=Cc1ccccc1)c1ccc2c(c1)C(C)(C)CCN2C
91 | 179 to 180 | CCOC(=O)C(=O)CC(=O)c1cn(Cc2ccc(F)cc2)c2c(F)cccc2c1=O
92 | 100 to 103 | O=C(NC(C(=O)NC(CO)COCc1ccccc1)C(Cc1ccccc1)C(=O)O)OCc1ccccc1 (stereo not drawn)
93 | 132 to 135 | O=C(NS(=O)(=O)C=Cc1ccccc1)N1CCC(CCCc2ccc(O)cc2)CC1
94 | 83 to 84 | CCCCCCCC(=O)c1ccc(CCC(C)(CCOC(C)=O)NC(C)=O)cc1 (stereo not drawn)
95 | 134 to 135 | CC1(COc2ccc(CC3SC(=O)NC3=O)cc2)CCC(=O)CC1 (stereo not drawn)
96 | 153 to 155 | CC(C)(C)c1cc(-c2csc(CN3CCSCC3)n2)cc(C(C)(C)C)c1O
97 | 76 to 77 | CC(=O)NCc1ccc(Cl)nc1
98 | 137 to 142 | CC(CO)Oc1cc(Oc2ccc(S(C)(=O)=O)cc2)cc2cc(C3=NCC(CC(N)=O)S3)[nH]c12 (stereo not drawn)
